Measurements: publication PMC6274284 (Molecules, 2016)

How the values were obtained:
[1] = tested on: hGRX
[2] = target: T1, hGRX1 (Homo sapiens, UniProt P35754, C83S); type: binding
[3] = target: T1, hGRX1; assay: biochemical; type: binding
[4] = target: T1, hGRX1; type: binding; remark: listed apart in the source

T1 sequence (P35754 whole entry C83S, looked up): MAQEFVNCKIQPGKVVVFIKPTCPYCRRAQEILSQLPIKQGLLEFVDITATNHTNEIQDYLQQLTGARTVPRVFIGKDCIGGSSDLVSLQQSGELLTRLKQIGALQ

Compound	MaxRel.STD hGRX1 [2]	also measured
C=CC(=O)NCc1ccn(-c2ccc(C(=O)OC)cc2)c1 [compound 5, Methyl 4-(3-(Acrylamidomethyl)-1H-pyrrol-1-yl)benzoate]		Enhancement of rate of reaction over naked acrylamide, hGRX [1]: about 35 fold
COC(=O)c1cccc2cc[nH]c12 [RK028]	11.2%	
O=C(O)c1ccc(-c2cnco2)cc1 [RK036]	2.1%	
Cn1nc(C(=O)O)cc1-c1ccccc1 [RK246]	0.6%	Kd [3]: 5.22 ± 1.16 mM
OCc1cc(-c2cccs2)[nH]n1 [RK126]	23.4%	
C=CC(N)=O [acrylamide, reference compound]		Reaction half life, hGRX ([1]; human): about 20 h
COCc1cc(=O)oc2cc(N)ccc12 [RK411]	13.7%	
O=C(O)c1ccc(-n2cccc2)cc1 [RK207]	0.5%	Kd [3]: 2.45 ± 0.52 mM
COCc1cc(=O)oc2cc(O)c(Cl)cc12 [RK450]	37.1%	
Nc1ccccc1N1CCNCC1 [RK155]		trNOE binding result, hGRX1 [4]: did not bind
Nc1ccc(CN2CCOCC2)cc1 [RK428]	0.6%	
